Experimental data published in the supplement of paper PMC4862054.

Experiments:
Assay in all cases: normalised viability (% of control), CellTiter-Blue; higher = more viable cells (about 100 = DMSO control)
Details in all cases: incubation time: 72 h
BT-549 [1] = test system: BT-549
How it was run: (§1)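 Normalised viability is given for a single listed concentration of the series. In 384-well plates, breast cancer cell lines were incubated 72 h with compound, then read with CellTiter-Blue (2 h, 37 °C) at 560/590 nm. Per-plate scaling set vehicle to 100 and a positive kill control to 0, with Z'-factor quality control.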

CAL-148 [2] = test system: CAL-148
How it was run: as §1

CAL-85-1 [3] = test system: CAL-85-1
How it was run: as §1

HCC1937 [4] = test system: HCC1937
How it was run: as §1

HDQ-P1 [5] = test system: HDQ-P1
How it was run: as §1

MDA-MB-231 = test system: MDA-MB-231
How it was run: as §1

MDA-MB-468 = test system: MDA-MB-468
How it was run: as §1

SK-BR-3 [6] = test system: SK-BR-3
How it was run: as §1

BT-474 = test system: BT-474
How it was run: as §1

BT-549 [7] = test system: BT-549; remark: listed apart in the source
How it was run: as §1

CAL-120 = test system: CAL-120
How it was run: as §1

CAL-148 [8] = test system: CAL-148; remark: listed apart in the source
How it was run: as §1

CAL-51 [9] = test system: CAL-51
How it was run: as §1

DU-4475 [10] = test system: DU-4475
How it was run: as §1

HCC1599 = test system: HCC1599
How it was run: as §1

HCC1937 [11] = test system: HCC1937; remark: listed apart in the source
How it was run: as §1

HDQ-P1 [12] = test system: HDQ-P1; remark: listed apart in the source
How it was run: as §1

Hs578T = test system: Hs578T
How it was run: as §1

MDA-MB-436 = test system: MDA-MB-436
How it was run: as §1

MFM-223 = test system: MFM-223
How it was run: as §1

SK-BR-3 [13] = test system: SK-BR-3; remark: listed apart in the source
How it was run: as §1

CAL-148 [14] = test system: CAL-148; remark: listed apart in the source
Method: (§2)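 DSRT, CellTiter-Blue viability, 72 h incubation. Signal is normalised to DMSO and benzethonium chloride controls. Value is the normalised response at dose 6.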

CAL-51 [15] = test system: CAL-51; remark: listed apart in the source
Method: as §2

CAL-85-1 [16] = test system: CAL-85-1; remark: listed apart in the source
Method: as §2

DU-4475 [17] = test system: DU-4475; remark: listed apart in the source
Method: as §2

HDQ-P1 [18] = test system: HDQ-P1; remark: listed apart in the source
Method: as §2

MDA-MB-453 = test system: MDA-MB-453
Method: as §2

C=CC(=O)N1CCC[C@@H](n2nc(-c3ccc(Oc4ccccc4)cc3)c3c(N)ncnc32)C1
Details	normalised viability [%]
BT-474, 1 nM	124
BT-474, 100 nM	45.9
BT-474, 1000 nM	42.1
BT-549 [1], 10 nM	97.9
BT-549 [7], 1 nM	96.6
BT-549 [7], 100 nM	109
BT-549 [7], 1000 nM	118
CAL-51 [9], 0.3 nM	95.9
CAL-51 [9], 3 nM	91
CAL-51 [9], 10 nM	94.3
CAL-51 [15], 30 nM	92.2
CAL-85-1 [3], 1 nM	96.2
CAL-85-1 [16], 30 nM	96
CAL-120, 1 nM	86.4
CAL-120, 100 nM	86.4
CAL-120, 1000 nM	97
CAL-148 [2], 1 nM	99.5
CAL-148 [8], 0.3 nM	85.8
CAL-148 [8], 3 nM	98.6
CAL-148 [8], 10 nM	96.3
CAL-148 [14], 30 nM	44.8
DU-4475 [10], 0.3 nM	91.8
DU-4475 [10], 3 nM	87.4
DU-4475 [10], 10 nM	86.8
DU-4475 [17], 30 nM	84.4
HCC1599, 1 nM	104
HCC1599, 100 nM	83.3
HCC1599, 1000 nM	82.6
HCC1937 [4], 10 nM	108
HCC1937 [11], 1 nM	94.8
HCC1937 [11], 100 nM	101
HCC1937 [11], 1000 nM	89.7
HDQ-P1 [5], 1 nM	111
HDQ-P1 [12], 0.3 nM	130
HDQ-P1 [12], 3 nM	106
HDQ-P1 [12], 10 nM	105
HDQ-P1 [18], 30 nM	107
Hs578T, 1 nM	123
Hs578T, 100 nM	123
Hs578T, 1000 nM	112
MDA-MB-231, 10 nM	90.3
MDA-MB-436, 1 nM	106
MDA-MB-436, 100 nM	85.8
MDA-MB-436, 1000 nM	94.8
MDA-MB-453, 30 nM	50.2
MDA-MB-468, 10 nM	102
MFM-223, 1 nM	92.1
MFM-223, 100 nM	83
MFM-223, 1000 nM	56.6
SK-BR-3 [6], 10 nM	57.9
SK-BR-3 [13], 1 nM	91.9
SK-BR-3 [13], 100 nM	24.9
SK-BR-3 [13], 1000 nM	21.7

CC(=O)Nc1cccc(-n2c(=O)n(C3CC3)c(=O)c3c(Nc4ccc(I)cc4F)n(C)c(=O)c(C)c32)c1
Details	normalised viability [%]
BT-474, 0.25 nM	118
BT-474, 25 nM	111
BT-474, 250 nM	122
BT-549 [1], 2.5 nM	104
BT-549 [7], 0.25 nM	87.6
BT-549 [7], 25 nM	92.3
BT-549 [7], 250 nM	86.2
CAL-51 [9], 0.075 nM	103
CAL-51 [9], 0.75 nM	89.4
CAL-51 [9], 2.5 nM	84.4
CAL-51 [15], 7.5 nM	81.6
CAL-85-1 [3], 0.25 nM	97.3
CAL-85-1 [16], 7.5 nM	76.2
CAL-120, 0.25 nM	113
CAL-120, 25 nM	68.1
CAL-120, 250 nM	47.6
CAL-148 [2], 0.25 nM	107
CAL-148 [8], 0.075 nM	107
CAL-148 [8], 0.75 nM	96.2
CAL-148 [8], 2.5 nM	96.6
CAL-148 [14], 7.5 nM	90.7
DU-4475 [10], 0.075 nM	117
DU-4475 [10], 0.75 nM	59.7
DU-4475 [10], 2.5 nM	10.8
DU-4475 [17], 7.5 nM	0.58
HCC1599, 0.25 nM	93.1
HCC1599, 25 nM	69.8
HCC1599, 250 nM	50.1
HCC1937 [4], 2.5 nM	102
HCC1937 [11], 0.25 nM	132
HCC1937 [11], 25 nM	112
HCC1937 [11], 250 nM	89.2
HDQ-P1 [5], 0.25 nM	103
HDQ-P1 [12], 0.075 nM	112
HDQ-P1 [12], 0.75 nM	98.3
HDQ-P1 [12], 2.5 nM	99.3
HDQ-P1 [18], 7.5 nM	54.1
Hs578T, 0.25 nM	129
Hs578T, 25 nM	84.8
Hs578T, 250 nM	83
MDA-MB-231, 2.5 nM	57.7
MDA-MB-436, 0.25 nM	104
MDA-MB-436, 25 nM	97.8
MDA-MB-436, 250 nM	95
MDA-MB-453, 7.5 nM	99.6
MDA-MB-468, 2.5 nM	105
MFM-223, 0.25 nM	98.8
MFM-223, 25 nM	84.5
MFM-223, 250 nM	64.4
SK-BR-3 [6], 2.5 nM	92.7
SK-BR-3 [13], 0.25 nM	111
SK-BR-3 [13], 25 nM	111
SK-BR-3 [13], 250 nM	97.7
